In patent US20240180895A1, “USE OF KAPPA OPIOID RECEPTOR AGONISTS TO TREAT CARDIOVASCULAR DISEASE” (Board of Supervisors of Louisiana State University and …, priority 2021, published 2024):

Key:
[1] = system: Sprague-Dawley rats; assay: Reversal of oral furosemide diuretic resistance by oral nalfurafine (FIG. 17); format: in vivo, rat; conditions: nalfurafine 150 μg/kg oral added from day 7
Procedure: Male Sprague-Dawley rats were placed in individual metabolic cages in a room with 12-hour automatic light on/off control and allowed tap water and rodent chow ad libitum. Over the next two (2) days (control period), rats were administered vehicle (5% NaOH; 1 M PBS) orally (gavage) in the morning (9:00 am) and afternoon (2:00 pm) and urine was collected for 5-hours after the first oral treatment. […] This was repeated for 8 consecutive days (experimental period).

[2] = in rats; cited from earlier work
[3] = system: spontaneously hypertensive rats; assay: Chronic oral nalfurafine, radiotelemetry blood pressure (FIG. 18); format: in vivo, rat; conditions: nalfurafine 0.5 mg/kg oral once per day for 5 weeks
Procedure: Male spontaneously hypertensive rats (SHR; Charles Rivers) were single housed and allowed tap water and standard rodent diet ad libitum. All procedures and experiments were conducted in accordance with the National Institutes of Health guidelines for the care and use of animals.
Radiotelemetry transmitters (Data Sciences International, St. Paul, MN) were implanted into SHR for chronic recording of blood pressure and heart rate and followed as previously published.^56 Briefly, rats were anesthetized and maintained on 2% isoflurane and the right femoral artery was surgically exposed. The transmitter catheter was inserted into the femoral artery and advanced until reaching the abdominal aorta. The site exposing the femoral artery was sutured and rats were allowed 1 week of recovery. Telemetry data was analyzed using Ponemah software (DSI, St. Paul, MN).
Spontaneously hypertensive rats were orally administered (gavage) nalfurafine (0.5 mg/kg) or vehicle (water) once per day for 5 weeks following recovery from radiotelemetry transmitter insertion. Blood pressure was recorded once per week and the 12:00-14:00 time frame was plotted.
All results are expressed as mean±SEM. Statistically different changes for both experimental protocols were determined using 2-way ANOVA with repeated measures and were considered statistically different following a significant/value for an interaction between experimental group and time. Statistical significance was determined as P<0.05, and statistics were performed on Prism 7.05 software (GraphPad Software, Inc, San Diego, CA).

[4] = system: Sprague-Dawley rats; assay: Prevention of diuretic resistance to twice daily furosemide by nalfurafine, 5-hour urine (FIG. 15); format: in vivo, rat; conditions: nalfurafine 10 μg/kg IP added to furosemide 20 mg/kg twice daily
Procedure: Male Sprague-Dawley rats were placed in individual metabolic cages in a room with 12-hour automatic light on/off control and allowed tap water and rodent chow ad libitum. Over the next two (2) days (control period), rats were administered vehicle (5% NaOH; 1 M PBS, IP) in the morning (9:00 am) and afternoon (2:00 pm) of each day, with urine collected for 5-hours starting immediately after the first injection. […] This was repeated for 4 consecutive days (experimental period).

[5] = system: conscious Sprague-Dawley rats; assay: Acute cardiovascular and renal excretory studies, i.v. bolus (Example 3); format: in vivo, rat
Procedure: Animals: Male Sprague-Dawley (SD) rats (Envigo Labs, Indianapolis, IN), 300-350 g, were individually housed under a 12 h light-dark cycle and allowed tap water and standard rodent diet ad libitum. Rats were randomly assigned to experimental groups for all acute and subacute studies. All procedures were approved by the Louisiana State University Health Sciences Center Institutional Animal Care and Use Committee and conducted in accordance with the National Institutes of Health guidelines for the care and use of animals.
Surgical Procedures: Aseptic technique was followed for all surgical procedures. On the morning of the experiment, rats were anesthetized with and maintained under inhaled 2% isoflurane, and polyethylene catheters (PE50; BD Diagnostics, Sparks, MD) were surgically inserted into the left femoral vein and left femoral artery for the infusion of saline and/or drug administration and the recording of arterial blood pressure, respectively. Subsequently, a suprapubic incision was made and a flanged polyethylene catheter (PE240; BD Diagnostics, Sparks, MD) was inserted into the bladder, exteriorized, and sutured to surrounding muscle and skin. Rats were then placed in an elevated restrainer (Krowicki & Kapusta, 2011) to recover from surgery and allow collection of urine. When acute experimental protocols were completed, rats were anesthetized via isoflurane and decapitated.
Acute Cardiovascular and Renal Excretory Studies: Following surgery, rats received an i.v. infusion of isotonic saline at 55 μL min^−1 throughout the duration of the experiment and were allowed 4-6 hours to recover from anesthesia. Arterial catheters were connected to a pressure transducer (MLT0670, ADInstruments, Sydney, Australia), which was connected to Powerlab 8/30 (ADInstruments) for recording of pulsatile and mean arterial blood pressure (MAP) and heart rate (HR). Blood pressure and HR were visualized using LabChart software (v8.1.5; ADInstruments). […] Following this control period, drug or vehicle (isotonic saline) was injected into the femoral vein catheter at a volume of 2 cc kg^−1, and urines were collected in 10 minute periods for a span of 90 minutes. […] All groups are n=6. Urine volume was measured gravimetrically, urine sodium and potassium concentrations were measured using flame photometry (model 943; Instrumentation Laboratories, Lexington, MA), and urine osmolality was measured using a vapor pressure osmometer (model 5600; WESCOR, Logan, UT).
Experimental Design and Analysis: All results are expressed as mean±SEM. […] Means between groups for total urine output, Na^+ concentration, K^+ concentration, and urine osmolality were compared using a Student's t-test. Statistical significance was characterized as P<0.05. Statistics were carried out using Prism 7.05 software (GraphPad Software, Inc., San Diego, CA) and IBM SPSS Statistics (IBM, Armonk, NY).

[6] = i.v. bolus, cumulative 90-min urine, same doses, mean±SEM

For CN(C(=O)/C=C/c1ccoc1)[C@@H]1CC[C@@]2(O)[C@H]3Cc4ccc(O)c5c4[C@@]2(CCN3CC2CC2)[C@H]1O5 [nalfurafine, Nalfurafine], the “Effect on established diuretic resistance to furosemide” value [1] is listed as “able to treat or rescue the diuretic resistance”, the Half-life [2] is listed as about 6 h and the “Diastolic blood pressure and heart rate vs vehicle” value [3] is listed as “no significant interaction between treatment over time for diastolic blood pressure or heart rate”. For the same compound, the “Mean arterial pressure vs vehicle” value ([3]; 12:00-14:00 time frame) was “significantly lower mean arterial pressure at the 3-week time point”, the “Systolic blood pressure vs vehicle” value ([3]; 12:00-14:00 time frame) was “significantly lower in the nalfurafine group compared to vehicle at 3, 4, and 5 weeks” and the “Effect on diuretic resistance to furosemide” value [4] was “prevents the diuretic resistance”. For the same compound, the “Duration of the increase in urine flow rate above control” value ([5]; after i.v. bolus) was 50 min, the “Time of peak diuresis (urine flow rate)” value ([5]; after i.v. bolus) was 30 min and the “Time of peak antikaliuresis” value ([5]; after i.v. bolus 5 μg kg−1) was 50 min. For the same compound, the “Time of peak antinatriuresis” value ([5]; after i.v. bolus 5 μg kg−1) was 40 min, the “Effect on heart rate (HR)” value ([5]; i.v. bolus, 90-min protocol) was “did not change HR” and the “Potassium concentration [K+] in cumulative urine” value [5, 6] was 4.51±0.68 μeq ml^−1. For the same compound, the “Sodium concentration [Na+] in cumulative urine” value [5, 6] was 43.59±5.71 μeq ml^−1, the Urine osmolality [5, 6] was 158.7 ± 16.78 mmol/kg and the “Mean arterial pressure (MAP), peak Δ” value ([5]; i.v. bolus, peak change vs group control value, time of peak 40 to 90 min as printed) was −11 mmHg. The “Decrease in MAP” value ([5]; i.v. nalfurafine, as summarised in the discussion) was about 10 mmHg.
